In patent US20230312587A1, “PTERIDINONE COMPOUNDS AND USES THEREOF” (Vertex Pharmaceutical Incorporated, priority 2018, published 2023) one finds IC50 data, which are given here for 21 compounds.

pIC50: −log10 of the molar value. Some results are limits rather than exact numbers.

The test system of this test is β-catenin-TCF-mediated reporter transcription activity in Colo 205 cells. Kind of test: Colo 205 reporter assay (TCF/LEF luciferase). The note with it: Homo sapiens, COLO 205, 5 h, Colo 205 TCF/LEF luciferase reporter, five hours after addition of compound; read-out: TCF reporter Colo205 IC50. The class given is cell-based. Summed up: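 Luciferase signal from a TCF/LEF-driven reporter, stably integrated in Colo 205 colon cancer cells, was measured 5 h after compound addition.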
On the technique in general: In a reporter assay the amount or activity of a reporter protein is the signal.

A word on the pIC50: it is the IC50 on a negative log10 scale, so that one unit is a factor of ten. Turning to `Cc1nc(NC2CN(C(=O)c3csc(Cl)n3)C2)nc2c1NC(=O)[C@H](C(C)C)N2C` [Compound 630, (S)-2-((1-(2-chlorothiazole-4-carbonyl)azetidin-3-yl)amino)-7-isopropyl-4,8-dimethyl-7,8-dihydropteridin-6(5H)-one], the pIC50 was 5.30 to 6.00.

Consider `Cc1nc(NC2CN(C(=O)c3cnccn3)C2)nc2c1NC(=O)[C@H](C(C)C)N2C` [Compound 631, (S)-7-isopropyl-4,8-dimethyl-2-((1-(pyrazine-2-carbonyl)azetidin-3-yl)amino)-7,8-dihydropteridin-6(5H)-one], for which the pIC50 was no more than 5.30.

Take `Cc1nc(NC2CN(C(=O)Cc3cccc(F)c3F)C2)nc2c1NC(=O)[C@H](C(C)C)N2C` [Compound 632, (S)-2-((1-(2-(2,3-difluorophenyl)acetyl)azetidin-3-yl)amino)-7-isopropyl-4,8-dimethyl-7,8-dihydropteridin-6(5H)-one]: the pIC50 was 6.00 to 6.52.

Turning to `Cc1nc(NC2CN(C(=O)c3cnc(Cl)s3)C2)nc2c1NC(=O)[C@H](C(C)C)N2C` [Compound 633, (S)-2-((1-(2-chlorothiazole-5-carbonyl)azetidin-3-yl)amino)-7-isopropyl-4,8-dimethyl-7,8-dihydropteridin-6(5H)-one], the pIC50 was 5.30 to 6.00.

For `CO[C@@H](C(=O)N1CC(Nc2nc(C)c3c(n2)N(C)[C@@H](C(C)C)C(=O)N3)C1)c1ccccc1` [Compound 634, (S)-7-isopropyl-2-((1-((R)-2-methoxy-2-phenylacetyl)azetidin-3-yl)amino)-4,8-dimethyl-7,8-dihydropteridin-6(5H)-one], the pIC50 was no more than 5.30.

With `Cc1nc(NC2CN(C(=O)c3cccc(C(F)(F)F)c3)C2)nc2c1NC(=O)[C@H](C(C)C)N2C` [Compound 635, (S)-7-isopropyl-4,8-dimethyl-2-((1-(3-(trifluoromethyl)benzoyl)azetidin-3-yl)amino)-7,8-dihydropteridin-6(5H)-one], the pIC50 was greater than 6.52.

For the compound `Cc1nc(NC2CN(C(=O)[C@H]3CCCO3)C2)nc2c1NC(=O)[C@H](C(C)C)N2C` [Compound 636, (S)-7-isopropyl-4,8-dimethyl-2-((1-((R)-tetrahydrofuran-2-carbonyl)azetidin-3-yl)amino)-7,8-dihydropteridin-6(5H)-one], the pIC50 is no more than 5.30.

As for `Cc1nc(NC2CN(C(=O)C3CCC(C)O3)C2)nc2c1NC(=O)[C@H](C(C)C)N2C` (stereo partly drawn) [Compound 637, (7S)-7-isopropyl-4,8-dimethyl-2-((1-(5-methyltetrahydrofuran-2-carbonyl)azetidin-3-yl)amino)-7,8-dihydropteridin-6(5H)-one], the pIC50 was no more than 5.30.

For the compound `Cc1nc(NC2CN(C(=O)C3(C)CCCO3)C2)nc2c1NC(=O)[C@H](C(C)C)N2C` (stereo partly drawn) [Compound 638, (7S)-7-isopropyl-4,8-dimethyl-2-((1-(2-methyltetrahydrofuran-2-carbonyl)azetidin-3-yl)amino)-7,8-dihydropteridin-6(5H)-one], the pIC50 was no more than 5.30.

As for `Cc1nc(NC2CN(C(=O)C3CC4CCC3C4)C2)nc2c1NC(=O)[C@H](C(C)C)N2C` (stereo partly drawn) [Compound 639, (7S)-2-((1-(bicyclo[2.2.1]heptane-2-carbonyl)azetidin-3-yl)amino)-7-isopropyl-4,8-dimethyl-7,8-dihydropteridin-6(5H)-one], the negative-log IC50 (pIC50) is 5.30 to 6.00.

On to `Cc1nc(NC2CN(C(=O)c3ncccn3)C2)nc2c1NC(=O)[C@H](C(C)C)N2C` [Compound 640, (S)-7-isopropyl-4,8-dimethyl-2-((1-(pyrimidine-2-carbonyl)azetidin-3-yl)amino)-7,8-dihydropteridin-6(5H)-one], for which the pIC50 is no more than 5.30.

As to `Cc1nc(NC2CN(C(=O)[C@@H](C)c3ccccc3)C2)nc2c1NC(=O)[C@H](C(C)C)N2C` [Compound 641, (S)-7-isopropyl-4,8-dimethyl-2-((1-((S)-2-phenylpropanoyl)azetidin-3-yl)amino)-7,8-dihydropteridin-6(5H)-one], the pIC50 is no more than 5.30.

`Cc1nc(NC2CN(C(=O)[C@@H]3CCCO3)C2)nc2c1NC(=O)[C@H](C(C)C)N2C` [Compound 642, (S)-7-isopropyl-4,8-dimethyl-2-((1-((S)-tetrahydrofuran-2-carbonyl)azetidin-3-yl)amino)-7,8-dihydropteridin-6(5H)-one]: the pIC50 was no more than 5.30.

Take `Cc1nc(N[C@H]2C[C@@H](Oc3cnc(C(F)(F)F)nc3)C2)nc2c1NC(=O)[C@H](C(C)C)N2C` [Compound 644, (S)-7-isopropyl-4,8-dimethyl-2-((cis-3-((2-(trifluoromethyl)pyrimidin-5-yl)oxy)cyclobutyl)amino)-7,8-dihydropteridin-6(5H)-one]: the pIC50 is greater than 6.52.

In the case of `CC[C@H]1C(=O)Nc2c(C)nc(N[C@H]3C[C@H](Oc4cnc(C(F)(F)F)nc4)C3)nc2N1C` [Compound 645, (S)-7-ethyl-4,8-dimethyl-2-((trans-3-((2-(trifluoromethyl)pyrimidin-5-yl)oxy)cyclobutyl)amino)-7,8-dihydropteridin-6(5H)-one], the negative-log IC50 (pIC50) is greater than 6.52.

In the case of `CC[C@H]1C(=O)Nc2c(C)nc(N[C@H]3C[C@@H](COc4ccc(C(F)(F)F)nc4)C3)nc2N1C` [Compound 646, (S)-7-ethyl-4,8-dimethyl-2-((cis-3-(((6-(trifluoromethyl)pyridin-3-yl)oxy)methyl)cyclobutyl)amino)-7,8-dihydropteridin-6(5H)-one], the pIC50 was greater than 6.52.

In the case of `CO[C@H](C)[C@H]1C(=O)Nc2c(C)nc(N[C@H]3C[C@@H](Nc4cnc(C(F)(F)F)cn4)C3)nc2N1C` [Compound 647, (S)-7-((R)-1-methoxyethyl)-4,8-dimethyl-2-((cis-3-((5-(trifluoromethyl)pyrazin-2-yl)amino)cyclobutyl)amino)-7,8-dihydropteridin-6(5H)-one], the pIC50 is greater than 6.52.

For `CC[C@H]1C(=O)Nc2c(C)nc(N[C@H]3C[C@@H](Nc4cnc(C(F)(F)F)cn4)C3)nc2N1C` [Compound 648, (S)-7-ethyl-4,8-dimethyl-2-((cis-3-((5-(trifluoromethyl)pyrazin-2-yl)amino)cyclobutyl)amino)-7,8-dihydropteridin-6(5H)-one], the pIC50 was greater than 6.52.

With `Cc1nc(NC2CN(Cc3ccc(C(F)(F)F)nc3)C2)nc2c1NC(=O)[C@H](C(C)C)N2C` [Compound 649, (S)-7-isopropyl-4,8-dimethyl-2-((1-((6-(trifluoromethyl)pyridin-3-yl)methyl)azetidin-3-yl)amino)-7,8-dihydropteridin-6(5H)-one], the pIC50 was greater than 6.52.

For the compound `Cc1nc(NC2CN(Cc3ccc(C(F)(F)F)cc3)C2)nc2c1NC(=O)[C@H](C(C)C)N2C` [Compound 650, (S)-7-isopropyl-4,8-dimethyl-2-((1-(4-(trifluoromethyl)benzyl)azetidin-3-yl)amino)-7,8-dihydropteridin-6(5H)-one], the pIC50 was greater than 6.52.

On to `CO[C@H](C)[C@H]1C(=O)Nc2c(C)nc(N[C@H]3C[C@@H](N(C)c4cnc(C(F)(F)F)cn4)C3)nc2N1C` [Compound 651, (S)-7-((R)—1-methoxyethyl)-4,8-dimethyl-2-((cis-3-(methyl(5-(trifluoromethyl)pyrazin-2-yl)amino)cyclobutyl)amino)-7,8-dihydropteridin-6(5H)-one], for which the pIC50 is 5.30 to 6.00.
